{
  "source": "paper PMC2904454",
  "about": "(Cancer Chemotherapy and Pharmacology, 2009)",
  "key": {"[1]": {"assay": "Plasma pharmacokinetics of sunitinib, SU12662 and total drug", "type": "in vivo, human", "conditions": "for Mean trough plasma concentration: day 14 of cycle 1, Schedule 2/1"}, "[2]": {"test_system": "patients with advanced solid tumors", "type": "in vivo, human", "conditions": "for MTD of docetaxel in combination with sunitinib: IV q21d; for MTD of sunitinib in combination with docetaxel: with docetaxel q21d"}, "[3]": {"assay": "Plasma pharmacokinetics of docetaxel", "type": "in vivo, human", "conditions": "for half-life / AUC(0-inf) / Cmax / Tmax: plasma, intravenous; for Tmax: median (range)"}, "breast cancer and NSCLC": {"test_system": "breast cancer and NSCLC", "conditions": "cited from earlier work"}, "NSCLC": {"test_system": "NSCLC", "conditions": "ESCAPE, with carboplatin and paclitaxel in NSCLC; cited from earlier work"}, "[4]": {"test_system": "patients with advanced solid tumors", "assay": "Safety: adverse events graded by NCI CTCAE v3.0, ECG/MUGA, patient disposition", "type": "in vivo, human", "conditions": "with docetaxel"}, "[5]": {"conditions": "Schedule 2/1 dose level 3b (MTD), n = 10"}, "[6]": {"conditions": "Schedule 2/1 dose level 3b (MTD), n = 10, docetaxel + sunitinib (day 1 of cycle 2)"}, "[7]": {"conditions": "Schedule 2/1 dose level 3b (MTD), n = 10, sunitinib alone (day 3 of cycle 1)"}, "[8]": {"conditions": "Schedule 4/2 dose level 0, n = 3"}, "[9]": {"conditions": "Schedule 4/2 dose level 0, n = 3, docetaxel + sunitinib (day 22)"}, "[10]": {"conditions": "Schedule 4/2 dose level 0, n = 3, sunitinib alone (day 18)"}, "[11]": {"conditions": "Schedule 4/2 dose level 1, n = 5"}, "[12]": {"conditions": "Schedule 4/2 dose level 1, n = 5, docetaxel + sunitinib (day 22)"}, "[13]": {"conditions": "Schedule 4/2 dose level 1, n = 5, sunitinib alone (day 18)"}, "[14]": {"conditions": "Schedule 2/1 dose level 3b, n = 8"}, "[15]": {"conditions": "Schedule 2/1 MTD only, dose level 3b (n = 23)"}, "[16]": {"conditions": "Schedule 2/1 dose levels 0–3b, all patients (N = 40)"}, "[17]": {"conditions": "Schedule 4/2 dose levels 0–1 (N = 10)"}},
  "note": "Like-named read-outs stand apart in the source and are kept apart here.",
  "data": [
    {"compound": "CCNCCNC(=O)c1c(C)[nH]c(/C=C2\\C(=O)Nc3ccc(F)cc32)c1C", "note": "[SU12662]", "values": [
      {"measurement": "AUC0–24 geometric mean ratio (combination/drug alone)", "setting": "[1]; [5]", "value": 0.99},
      {"measurement": "C max geometric mean ratio (combination/drug alone)", "setting": "[1]; [5]", "value": 1.16},
      {"measurement": "AUC0–24, mean (SD)", "setting": "[1]; [6]", "value": "62.7 (32.4) ng*h/mL"},
      {"measurement": "C max, mean (SD)", "setting": "[1]; [6]", "value": "4.1 (1.9) ng/mL"},
      {"measurement": "T max, median (range)", "setting": "[1]; [6]", "value": "7.0 (2.0, 24.0) h"},
      {"measurement": "C max, mean (SD)", "setting": "[1]; [7]", "value": "3.4 (1.3) ng/mL"},
      {"measurement": "T max, median (range)", "setting": "[1]; [7]", "value": "5.0 (4.0, 24.0) h"},
      {"measurement": "AUC0–24, mean (SD)", "setting": "[1]; Schedule 2/1 dose level 3b (MTD: sunitinib 37.5 mg + docetaxel 75 mg/m^2 q21d), n = 10, sunitinib alone (day 3 of cycle 1)", "value": "58.0 (22.3) ng*h/mL"},
      {"measurement": "AUC0–24, mean (SD)", "setting": "[1]; Schedule 4/2 dose level 0 (sunitinib 25 mg, docetaxel 60 mg/m^2), n = 3, sunitinib alone (day 18)", "value": "294.0 (195.0) ng*h/mL"},
      {"measurement": "AUC0–24 geometric mean ratio (combination/drug alone)", "setting": "[1]; [8]", "value": 1.10},
      {"measurement": "C max geometric mean ratio (combination/drug alone)", "setting": "[1]; [8]", "value": 1.14},
      {"measurement": "AUC0–24, mean (SD)", "setting": "[1]; [9]", "value": "299.9 (132.7) ng*h/mL"},
      {"measurement": "C max, mean (SD)", "setting": "[1]; [9]", "value": "14.4 (7.2) ng/mL"},
      {"measurement": "T max, median (range)", "setting": "[1]; [9]", "value": "4.0 (2.0, 4.0) h"},
      {"measurement": "C max, mean (SD)", "setting": "[1]; [10]", "value": "13.3 (8.3) ng/mL"},
      {"measurement": "T max, median (range)", "setting": "[1]; [10]", "value": "4.0 (4.0, 12.0) h"},
      {"measurement": "AUC0–24, mean (SD)", "setting": "[1]; Schedule 4/2 dose level 1 (sunitinib 37.5 mg, docetaxel 60 mg/m^2), n = 5, sunitinib alone (day 18)", "value": "341.9 (110.9) ng*h/mL"},
      {"measurement": "AUC0–24 geometric mean ratio (combination/drug alone)", "setting": "[1]; [11]", "value": 1.06},
      {"measurement": "C max geometric mean ratio (combination/drug alone)", "setting": "[1]; [11]", "value": 1.05},
      {"measurement": "AUC0–24, mean (SD)", "setting": "[1]; [12]", "value": "366.8 (137.5) ng*h/mL"},
      {"measurement": "C max, mean (SD)", "setting": "[1]; [12]", "value": "17.7 (7.2) ng/mL"},
      {"measurement": "T max, median (range)", "setting": "[1]; [12]", "value": "4.0 (1.0, 12.0) h"},
      {"measurement": "C max, mean (SD)", "setting": "[1]; [13]", "value": "16.3 (4.6) ng/mL"},
      {"measurement": "T max, median (range)", "setting": "[1]; [13]", "value": "6.0 (2.0, 12.0) h"},
      {"measurement": "Mean trough plasma concentration", "setting": "[1]", "value": 16.4, "unit": "ng/mL"}
    ]},
    {"compound": "CC(=O)O[C@@]12CO[C@@H]1C[C@H](O)[C@@]1(C)C(=O)[C@H](O)C3=C(C)[C@@H](OC(=O)[C@H](O)[C@@H](NC(=O)OC(C)(C)C)c4ccccc4)C[C@@](O)([C@@H](OC(=O)c4ccccc4)[C@H]21)C3(C)C", "note": "[docetaxel, Docetaxel]", "values": [
      {"measurement": "MTD of docetaxel in combination with sunitinib", "setting": "[2]; with sunitinib on Schedule 2/1", "value": 75, "unit": "mg/m^2"},
      {"measurement": "MTD of docetaxel in combination with sunitinib", "setting": "[2]; with sunitinib on Schedule 4/2", "value": 60, "unit": "mg/m^2"},
      {"measurement": "AUCinf geometric mean ratio (combination/drug alone)", "setting": "[3]; [14]", "value": 1.12},
      {"measurement": "AUClast geometric mean ratio (combination/drug alone)", "setting": "[3]; [14]", "value": 1.16},
      {"measurement": "C max geometric mean ratio (combination/drug alone)", "setting": "[3]; [14]", "value": 1.24},
      {"measurement": "AUCinf geometric mean ratio (combination/drug alone)", "setting": "[3]; [11]", "value": 1.43},
      {"measurement": "AUClast geometric mean ratio (combination/drug alone)", "setting": "[3]; [11]", "value": 1.47},
      {"measurement": "C max geometric mean ratio (combination/drug alone)", "setting": "[3]; [11]", "value": 1.46},
      {"measurement": "AUClast, mean (SD)", "setting": "[3]; human, in vivo", "value": "2,712.5 (731.9) ng*h/mL"},
      {"measurement": "AUC(0-t)", "setting": "[3]; human, in vivo, AUClast, mean (SD)", "value": 2290, "unit": "ng·h/mL"},
      {"measurement": "half-life", "setting": "[3]; human, 60 mg/m^2", "value": 19.6, "unit": "h"},
      {"measurement": "AUC(0-inf)", "setting": "[3]; human, 60 mg/m^2, AUCinf, mean (SD), Schedule 4/2 dose level 1, n = 5, drug alone (day 1 of cycle 1)", "value": 2550, "unit": "ng·h/mL"},
      {"measurement": "half-life", "setting": "[3]; human, 75 mg/m^2", "value": 15.7, "unit": "h"},
      {"measurement": "AUC(0-inf)", "setting": "[3]; human, 75 mg/m^2, AUCinf, mean (SD), Schedule 2/1 dose level 3b, n = 8, drug alone (day 1 of cycle 1)", "value": 2960, "unit": "ng·h/mL"},
      {"measurement": "Cmax", "setting": "[3]; human, 75 mg/m^2, C max, mean (SD), Schedule 2/1 dose level 3b, n = 8, drug alone (day 1 of cycle 1)", "value": 2580, "unit": "ng/mL"},
      {"measurement": "Tmax", "setting": "[3]; human, 75 mg/m^2, T max, Schedule 2/1 dose level 3b, n = 8, drug alone (day 1 of cycle 1)", "value": 0.6, "unit": "h"},
      {"measurement": "AUC(0-inf)", "setting": "[3]; human, AUCinf, mean (SD), Schedule 4/2 dose level 1, n = 5, docetaxel + sunitinib (day 22 of cycle 1)", "value": 3690, "unit": "ng·h/mL"},
      {"measurement": "Cmax", "setting": "[3]; human, C max, mean (SD), Schedule 2/1 dose level 3b, n = 8, docetaxel + sunitinib (day 1 of cycle 2)", "value": 3180, "unit": "ng/mL"},
      {"measurement": "Cmax", "setting": "[3]; human, C max, mean (SD), Schedule 4/2 dose level 1, n = 5, docetaxel + sunitinib (day 22 of cycle 1)", "value": 3100, "unit": "ng/mL"},
      {"measurement": "Tmax", "setting": "[3]; human, T max, Schedule 2/1 dose level 3b, n = 8, docetaxel + sunitinib (day 1 of cycle 2)", "value": 0.8, "unit": "h"},
      {"measurement": "Grade 3/4 neutropenia, patients", "setting": "breast cancer and NSCLC; docetaxel monotherapy, phase III trials of breast cancer and NSCLC", "value": "54–84%"},
      {"measurement": "Use of granulocytic growth factor support", "setting": "breast cancer and NSCLC; single-agent docetaxel", "value": 17.9, "unit": "%"}
    ]},
    {"compound": "CNC(=O)c1cc(Oc2ccc(NC(=O)Nc3ccc(Cl)c(C(F)(F)F)c3)cc2)ccn1", "note": "[sorafenib]", "values": [
      {"measurement": "Febrile neutropenia rate", "setting": "NSCLC", "value": 5, "unit": "%"},
      {"measurement": "Grade 3/4 thrombocytopenia rate", "setting": "NSCLC", "value": 14, "unit": "%"}
    ]},
    {"compound": "CCN(CC)CCNC(=O)c1c(C)[nH]c(/C=C2\\C(=O)Nc3ccc(F)cc32)c1C", "note": "[sunitinib, Sunitinib malate]", "values": [
      {"measurement": "MTD of sunitinib in combination with docetaxel", "setting": "[2]; Schedule 2/1, oral", "value": 37.5, "unit": "mg/day"},
      {"measurement": "MTD of sunitinib in combination with docetaxel", "setting": "[2]; Schedule 4/2, oral", "value": 25, "unit": "mg/day"},
      {"measurement": "Dose reduction for sunitinib", "setting": "[4]; [15]", "value": "4 (17) n (%)"},
      {"measurement": "Treatment interruption for sunitinib, adverse event", "setting": "[4]; [15]", "value": "9 (39) n (%)"},
      {"measurement": "Dose reduction for sunitinib", "setting": "[4]; [16]", "value": "5 (13) n (%)"},
      {"measurement": "Treatment interruption for sunitinib, adverse event", "setting": "[4]; [16]", "value": "11 (28) n (%)"},
      {"measurement": "Dose reduction for sunitinib", "setting": "[4]; [17]", "value": "1 (10) n (%)"},
      {"measurement": "Treatment interruption for sunitinib, adverse event", "setting": "[4]; [17]", "value": "3 (30) n (%)"},
      {"measurement": "Mean trough plasma concentration", "setting": "[1]", "value": 43.8, "unit": "ng/mL"},
      {"measurement": "AUC(0-t)", "setting": "[1]; human, in vivo", "value": 297, "unit": "ng·h/mL"},
      {"measurement": "AUC(0-t)", "setting": "[1]; human, in vivo, AUC0–24, mean (SD)", "value": 1170, "unit": "ng·h/mL"},
      {"measurement": "AUC(0-t)", "setting": "[1]; human, plasma, oral, 25 mg, AUC0–24, mean (SD), Schedule 4/2 dose level 0 (sunitinib 25 mg, docetaxel 60 mg/m^2), n = 3, sunitinib alone (day 18)", "value": 721, "unit": "ng·h/mL"},
      {"measurement": "Tmax", "setting": "[1]; human, plasma, oral, 37.5 mg", "value": 8, "unit": "h"},
      {"measurement": "AUC(0-t)", "setting": "[1]; human, plasma, oral, AUC0–24, mean (SD), Schedule 4/2 dose level 0, n = 3, docetaxel + sunitinib (day 22)", "value": 548, "unit": "ng·h/mL"},
      {"measurement": "AUC(0-t)", "setting": "[1]; human, plasma, oral, AUC0–24, mean (SD), Schedule 4/2 dose level 1, n = 5, docetaxel + sunitinib (day 22)", "value": 1020, "unit": "ng·h/mL"}
    ]}
  ]
}
